Columns and labels:
FGFR1 = FGFR1 (Homo sapiens, UniProt P11362); assay: FGFR1 bioassay (ELISA, in vitro kinase activity); format: biochemical; settings: purified GST-FGFR1, poly(Glu-Tyr) substrate
Description: This assay is used to measure the in vitro kinase activity of FGF1-R in an ELISA assay.
1. Costar 96-well ELISA plates (Corning Catalog #3369).
2. Poly(Glu-Tyr) (Sigma Catalog #P0275).
4. 50 mM Hepes Buffer Solution.
5. Blocking Buffer (5% BSA/PBS).
6. Purified GST-FGFR1 (SUGEN, Inc.)
7. Kinase Dilution Buffer. Mix 500 μl 1M Hepes (GIBCO), 20 μl 5% BSA/PBS, 10 μl 100 mM sodium orthovanadate and 50 μl 5M NaCl.
9. ATP/MnCl2 phosphorylation mix: mix 20 μL ATP, 400 μL 1M MnCl2 and 9.56 ml dH2O.
10. NUNC 96-well V bottom polypropylene plates (Applied Scientific Catalog #AS-72092).
12. 0.05% TBST Add 500 μL TWEEN to 1 liter TBS.
13. Rabbit polyclonal anti-phosphotyrosine serum (SUGEN, Inc.).
14. Goat anti-rabbit IgG peroxidase conjugate (Biosource, Catalog #ALI0404).
1. Coat Costar 96 well ELISA plates with 1 μg per well Poly(Glu-Tyr) in 100 μl PBS. Store overnight at 4° C.
2. Wash coated plates once with PBS.
3. Add 150 μL of 5%BSA/PBS Blocking Buffer to each well. Incubate, with shaking, for 1 hr at room temperature.
4. Wash plate 2× with PBS, then once with 50 mM Hepes. Pat plates on a paper towel to remove excess liquid and bubbles.
5. Add 25 μL of 0.4 mM test compound in 4% DMSO or 4% DMSO alone (controls) to plate.
6. Dilute purified GST-FGFR1 in Kinase Dilution Buffer (5 ng kinase/50 μl KDB/well).
7. Add 50 μL of diluted kinase to each well.
8. Start kinase reaction by adding 25 μl/well of freshly prepared ATP/Mn++ (0.4 ml 1M MnCl2, 40 μL 10 mM ATP, 9.56 ml dH2O), freshly prepared).
9. Stop reaction with 25 μL of 0.5M EDTA.
10. Wash plate 4× with fresh TBST.
11. Make up Antibody Dilution Buffer: For 50 ml, mix 5 ml of 5% BSA, 250 μl of 5% milk and 50 μl of 100 mM sodium vanadate, bring to final volume with 0.05% TBST.
12. Add 100 μl per well of anti-phosphotyrosine (1:10000 dilution in ADB). Incubate, with shaking for 1 hr. at room temperature.
14. Add 100 μl per well of Biosource Goat anti-rabbit IgG peroxidase conjugate (1:6000 dilution in ADB). Incubate, with shaking for 1 hr. at room temperature.
15. Wash as in step 10 and then with PBS to remove bubbles and excess TWEEN.
16. Add 100 μl of ABTS/H2O2 solution to each well.
17. Incubate, with shaking, for 10 to 20 minutes. Remove any bubbles.
18. Read assay on Dynatech MR7000 ELISA reader: test filter at 410 nM, reference filter at 630 nM.

MET = target: T1, MET (Homo sapiens, UniProt P08581); assay: MET transphosphorylation assay; format: biochemical; settings: GST fusion protein containing the Met kinase domain, poly(glu-tyr) substrate
T1 construct: Purified GST fusion protein containing the Met kinase domain, SUGEN, Inc
Description: MET TRANSPHOSPHORYLATION ASSAY
This assay is used to measure phosphotyrosine levels on a poly(glutamic acid:tyrosine, 4:1) substrate as a means for identifying agonists/antagonists of met transphosphorylation of the substrate.
1. Corning 96-well ELISA plates, Corning Catalog #25805-96.
2. Poly(glu-tyr), 4:1, Sigma, Cat. No; P 0275.
5. Blocking Buffer: Dissolve 25 g Bovine Serum Albumin, Sigma Cat. No A-7888, in 500 ml PBS, filter through a […] filter.
6. Purified GST fusion protein containing the Met kinase domain, SUGEN, Inc.
8. 10% aqueous (MilliQue H2O) DMSO.
9. 10 mM aqueous (dH2O) Adenosine-5′-triphosphate, Sigma Cat. No. A-5394.
10. 2×Kinase Dilution Buffer: for 100 ml, mix 10 mL 1M HEPES at pH 7.5 with 0.4 mL 5% BSA/PBS, 0.2 mL 0.1 M sodium orthovanadate and 1 mL 5M sodium chloride in 88.4 mL dH2O.
11. 4×ATP Reaction Mixture: for 10 mL, mix 0.4 mL 1 M manganese chloride and 0.02 mL 0.1 M ATP in 9.56 mL dH2O.
12. 4×Negative Controls Mixture: for 10 mL, mix 0.4 mL 1 M manganese chloride in 9.6 mL dH2O.
13. NUNC 96-well V bottom polypropylene plates, Applied Scientific Catalog #S-72092
15. Antibody Dilution Buffer: for 100 mL, mix 10 mL 5% BSA/PBS, 0.5 mL 5% Carnation® Instant Milk in PBS and 0.1 mL 0.1 M sodium orthovanadate in 88.4 mL TBST.
16. Rabbit polyclonal antophosphotyrosine antibody, SUGEN, Inc.
17. Goat anti-rabbit horseradish peroxidase conjugated antibody, Biosource, Inc.
18. ABTS Solution: for 1 L, mix 19.21 g citric acid, 35.49 g Na2HPO4 and 500 mg ABTS with sufficient dH2O to make 1 L.
19. ABTS/H2O2: mix 15 mL ABST solution with 2μL H2O2 five minutes before use.
1. Coat ELISA plates with 2 μg Poly(Glu-Tyr) in 100 μL PBS, hold overnight at 4° C.
2. Block plate with 150 μL of 5% BSA/PBS for 60 min.
3. Wash plate twice with PBS then once with 50 mM Hepes buffer pH 7.4.
4. Add 50 μl of the diluted kinase to all wells. (Purified kinase is diluted with Kinase Dilution Buffer. Final concentration should be 10 ng/well.)
5. Add 25 μL of the test compound (in 4% DMSO) or DMSO alone (4% in dH2O) for controls to plate.
6. Incubate the kinase/compound mixture for 15 minutes.
7. Add 25 μL of 40 mM MnCl2 to the negative control wells.
8. Add 25 μL ATP/MnCl2 mixture to the all other wells (except the negative controls). Incubate for 5 min.
9. Add 25 μL 500 mM EDTA to stop reaction.
10. Wash plate 3× with TBST.
11. Add 100 μL rabbit polyclonal anti-Ptyr diluted 1:10,000 in Antibody Dilution Buffer to each well. Incubate, with shaking, at room temperature for one hour.
12. Wash plate 3× with TBST.
13. Dilute Biosource HRP conjugated anti-rabbit antibody 1:6,000 in Antibody Dilution buffer. Add 100 μL per well and incubate at room temperature, with shaking, for one hour.
14. Wash plate 1× with PBS.
15. Add 100 μl of ABTS/H2O2 solution to each well.
16. If necessary, stop the development reaction with the addition of 100 μl of 0.2M HCl per well.
17. Read plate on Dynatech MR7000 ELISA reader with the test filter at 410 nM and the reference filter at 630 nM.

T1 sequence (P08581 1078-1345 limits assumed): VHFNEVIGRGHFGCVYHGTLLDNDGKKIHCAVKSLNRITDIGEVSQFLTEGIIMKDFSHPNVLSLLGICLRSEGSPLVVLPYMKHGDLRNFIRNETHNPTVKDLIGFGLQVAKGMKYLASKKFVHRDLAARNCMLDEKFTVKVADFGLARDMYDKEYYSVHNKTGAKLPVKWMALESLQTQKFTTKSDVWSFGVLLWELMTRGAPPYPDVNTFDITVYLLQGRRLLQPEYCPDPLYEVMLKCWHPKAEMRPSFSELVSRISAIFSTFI
FGFR1, sequence (P11362 22-822, species assumed): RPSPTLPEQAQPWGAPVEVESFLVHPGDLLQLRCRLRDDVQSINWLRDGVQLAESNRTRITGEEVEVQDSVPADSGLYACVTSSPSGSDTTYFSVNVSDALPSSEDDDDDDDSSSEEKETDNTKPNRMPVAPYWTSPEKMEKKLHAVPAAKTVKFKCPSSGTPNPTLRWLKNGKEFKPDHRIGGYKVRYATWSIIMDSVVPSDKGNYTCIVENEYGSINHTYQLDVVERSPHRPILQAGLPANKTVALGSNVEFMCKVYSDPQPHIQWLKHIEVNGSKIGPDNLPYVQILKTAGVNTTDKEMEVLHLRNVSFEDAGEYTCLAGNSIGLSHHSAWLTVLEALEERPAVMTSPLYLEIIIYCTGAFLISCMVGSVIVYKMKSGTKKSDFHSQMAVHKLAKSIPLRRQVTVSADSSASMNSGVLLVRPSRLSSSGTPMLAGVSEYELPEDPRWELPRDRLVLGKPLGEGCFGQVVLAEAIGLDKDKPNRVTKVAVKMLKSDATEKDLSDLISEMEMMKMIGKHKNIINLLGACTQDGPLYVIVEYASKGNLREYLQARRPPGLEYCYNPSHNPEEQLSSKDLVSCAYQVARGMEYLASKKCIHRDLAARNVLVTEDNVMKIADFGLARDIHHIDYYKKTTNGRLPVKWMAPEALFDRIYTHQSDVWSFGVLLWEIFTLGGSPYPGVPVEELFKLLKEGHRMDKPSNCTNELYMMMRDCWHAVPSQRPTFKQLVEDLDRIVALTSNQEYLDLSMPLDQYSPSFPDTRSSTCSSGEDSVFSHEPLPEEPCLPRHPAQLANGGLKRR

IC50 (FGFR1) [nM]	IC50 (MET) [nM]	SMILES
31	78	CCN(CC)CCNC(=O)c1c(C)[nH]c(/C=C2\C(=O)Nc3cccc(-c4ccccc4)c32)c1C [Example 3, 2,4-Dimethyl-5-(2-oxo-4-phenyl-1,2-dihydro-indol-3-ylidenemethyl)-1H-pyrrole-3-carboxylic Acid (2-Diethylamino-ethyl)-amide]
740	700	Cc1[nH]c(/C=C2\C(=O)Nc3cccc(-c4ccc(F)cc4)c32)c(C)c1C(=O)N1CCN(C)CC1 [Example 4, 3-[3,5-Dimethyl-4-(4-methyl-piperazine-1-carbonyl)-1H-pyrrol-2-ylmethylene]-4-(4-fluoro-phenyl)-1,3-dihydro-indol-2-one]
57	73	Cc1[nH]c(/C=C2\C(=O)Nc3cccc(-c4ccc(F)cc4)c32)c(C)c1C(=O)NCCN1CCCC1 [Example 6, 5-[4-(4-Fluoro-phenyl)-2-oxo-1,2-dihydro-indol-3-ylidenemethyl]-2,4-dimethyl-1H-pyrrole-3-carboxylic Acid (2-Pyrrolidin-1-yl-ethyl)-amide]
1540	230	Cc1cc(C(=O)N2CC[C@H](N(C)C)C2)c(/C=C2\C(=O)Nc3cccc(-c4ccc(F)cc4)c32)[nH]1 [Example 10, 3-[3-((S)-3-Dimethylamino-pyrrolidine-1-carbonyl)-5-methyl-1H-pyrrol-2-ylmethylene]-4-(4-fluoro-phenyl)-1,3-dihydro-indol-2-one]
< 9.1	100	CCN(CC)CCNC(=O)c1c(C)[nH]c(/C=C2\C(=O)Nc3cccc(-c4cccc(F)c4)c32)c1C [Example 13, 5-[4-(3-Fluoro-phenyl)-2-oxo-1,2-dihydro-indol-3-ylidenemethyl]-2,4-dimethyl-1H-pyrrole-3-carboxylic Acid (2-Diethylamino-ethyl)-amide]
2070	370	Cc1[nH]c(/C=C2\C(=O)Nc3cccc(-c4cccc(F)c4)c32)c(C)c1C(=O)NCCn1ccnn1 [Example 15, 5-[4-(3-Fluoro-phenyl)-2-oxo-1,2-dihydro-indol-3-ylidenemethyl]-2,4-dimethyl-1H-pyrrole-3-carboxylic Acid (2-[1,2,3]Triazol-1-yl-ethyl)-amide]
1190	270	CCOC(=O)c1c(C)[nH]c(/C=C2\C(=O)Nc3cccc(-c4cccc(F)c4)c32)c1CCCN1CCN(C)CC1 [Example 18, 5-[4-(3-Fluoro-phenyl)-2-oxo-1,2-dihydro-indol-3-ylidenemethyl]-2-methyl-4-[3-(4-methyl-piperazin-1-yl)-propyl]-1H-pyrrole-3-carboxylic Acid Ethyl Ester]
1150	520	Cc1[nH]c(/C=C2\C(=O)Nc3cccc(-c4ccc(Cl)cc4)c32)c(C)c1C(=O)N1CCN(C)CC1 [Example 20, 4-(4-Chloro-phenyl)-3-[3,5-dimethyl-4-(4-methyl-piperazine-1-carbonyl)-1H-pyrrol-2-ylmethylene]-1,3-dihydro-indol-2-one]
57	140	Cc1[nH]c(/C=C2\C(=O)Nc3cccc(-c4ccc(Cl)cc4)c32)c(C)c1C(=O)NCCN1CCCC1 [Example 22, 5-[4-(4-Chloro-phenyl)-2-oxo-1,2-dihydro-indol-3-ylidenemethyl]-2,4-dimethyl-1H-pyrrole-3-carboxylic Acid (2-Pyrrolidin-1-yl-ethyl)-amide]
560	110	Cc1cc(C(=O)N2CC[C@@H](N(C)C)C2)c(/C=C2\C(=O)Nc3cccc(-c4ccc(Cl)cc4)c32)[nH]1 [Example 25, 4-(4-Chloro-phenyl)-3-[3-((R)-3-dimethylamino-pyrrolidine-1-carbonyl)-5-methyl-1H-pyrrol-2-ylmethylene]-1,3-dihydro-indol-2-one]
630	150	Cc1cc(C(=O)N2C[C@@H](C)N[C@@H](C)C2)c(/C=C2\C(=O)Nc3cccc(-c4ccc(Cl)cc4)c32)[nH]1 [Example 27]
29	65	CCN(CC)CCNC(=O)c1c(C)[nH]c(/C=C2\C(=O)Nc3cccc(-c4cccc(Cl)c4)c32)c1C [Example 29, 5-[4-(3-Chloro-phenyl)-2-oxo-1,2-dihydro-indol-3-ylidenemethyl]-2,4-dimethyl-1H-pyrrole-3-carboxylic Acid (2-Diethylamino-ethyl)-amide]
350	120	Cc1cc(C(=O)N2CC[C@H](N(C)C)C2)c(/C=C2\C(=O)Nc3cccc(-c4cccc(Cl)c4)c32)[nH]1 [Example 32, 4-(3-Chloro-phenyl)-3-[3-((S)-3-dimethylamino-pyrrolidine-1-carbonyl)-5-methyl-1H-pyrrol-2-ylmethylene]-1,3-dihydro-indol-2-one]
500	130	Cc1cc(C(=O)NCCn2ccnn2)c(/C=C2\C(=O)Nc3cccc(-c4cccc(Cl)c4)c32)[nH]1 [Example 34, 2-[4-(3-Chloro-phenyl)-2-oxo-1,2-dihydro-indol-3-ylidenemethyl]-5-methyl-1H-pyrrole-3-carboxylic Acid (2-[1,2,3]Triazol-1-yl-ethyl)-amide]
220	340	Cc1cc(C(=O)N2C[C@@H](C)N[C@@H](C)C2)c(/C=C2\C(=O)Nc3cccc(-c4cccc(Cl)c4)c32)[nH]1 [Example 35, 4-(3-Chloro-phenyl)-3-[3-((cis)-3,5-dimethyl-piperazine-1-carbonyl)-5-methyl-1H-pyrrol-2-ylmethylene]-1,3-dihydro-indol-2-one]

— US6677368B2, “4-aryl substituted indolinones” (Sugen, Inc., priority 2000, dated 2004)
